# Data: patent US10538571B2, “Compositions and methods for neurological diseases” (Coda Biotherapeutics, Inc., priority 2017, dated 2020)
# What was measured:
# [1] = system: spared nerve injury (SNI) model; assay: Spared nerve injury (SNI) model of neuropathic pain, mechanical withdrawal threshold (von Frey, up-down method) after AAV.hSYN-α7-nAChR/GlyRα1 injection; assay type: in vivo, rat; settings: for reversal of mechanical hypersensitivity: single IP injection
# Text: Eight expression cassettes are constructed using standard molecular biology techniques. All contain a human synapsin-1 (hSYN) promoter linked to engineered chimeric receptors comprising a ligand binding domain of α7-nAChR and a Cys-loop domain and ion pore domain of GlyRα1. Their design is as follows:
# These cassettes are subcloned into AAV bacmids, purified, transfected into Sf9 insect cells to produce recombinant bacuvlovirus, and then amplified. Sf9 cells are double infected using the amplified recombinant baculovirus containing the hSYN-α7-nAChR/GlyRα1 cassettes and another recombinant baculovirus containing the Rep and AAV6(Y705+731F+T492V) Cap genes to produce recombinant AAV vectors. The viral vectors are purified, viral titer determined using qPCR, and SDS-PAGE used to verify the purity of AAV vectors.
# To produce mechanical hypersensitivity in a model that mimics a neuropathic pain condition, the spared nerve injury (SNI) model (a validated model of mechanical allodynia) is used (Shields et al., 2003, The Journal of Pain, 4, 465-470). This model is produced by the sectioning of the common peroneal and the sural nerves and isolating the tibial branch. Mechanical withdrawal threshold is assessed by placing rats on an elevated wire-mesh grid and stimulating the plantar surface of the hind paw with von Frey filaments.
# A dorsal hemilaminectomy is made at the level of the lumbar enlargement to expose two segments (about 1.5-2 mm) of lumbar spinal cord, after which the dura mater is incised and reflected. The viral solution is loaded into a glass micropipette (prefilled with mineral oil). The micropipette is connected to a manual micro-injector mounted on a stereotactic apparatus. The viral solution is targeted to the dorsal horn (left side). Along the rostro-caudal axis within the exposed region, 6 injections of 240 nl each are performed, in an equidistant linear fashion. After each injection, 1 min of resting time is observed and then the muscle layer is sutured, the skin closed with staples, and the animals were allowed to recover with heated-pad before they were returned to their home cages. Animals are perfused for histological analysis after the last behavior test.
# The injection is performed with a borosilicate glass capillary (0.78/1 mm internal/external diameters) pulled to a fine point, attached by polyethylene tubing (0.4/0.8 mm internal/external diameters) to a syringe mounted in a microinjection pump. The needle is mounted on an extended arm of a stereotaxic frame swung to the outside (used to hold and manipulate the needle only). Tubing, syringe, and needle are all filled with water. One microliter air is taken up into the needle followed by 3 μL of the viral vector solution. The needle is loaded separately with this volume for each injection. Animals are anesthetized prior to surgery. Following an incision along the dorsal midline, the L4 and L5 DRG are exposed by removal of the lateral processes of the vertebrae. The epineurium lying over the DRG is opened, and the glass needle inserted into the ganglion, to a depth of 400 μm from the surface of the exposed ganglion. After a 3-minute delay to allow sealing of the tissue around the glass capillary tip, 1.1 μL virus solution was injected at a rate of 0.2 μL/minute. After a further delay of 2 minutes, the needle is removed. The L4 ganglion is injected first followed by the L5 ganglion. The muscles overlying the spinal cord are loosely sutured together with a 5-0 suture and the wound closed. Animals are allowed to recover at 37° C. and received postoperative analgesia.
# Rats are first anesthetized and then placed vertically with their head fixed in a stereotaxic frame. An incision is made in the base of the neck to expose the groove in the nuchal crest. An incision is made (1-2 mm) in the cisternal membrane to a depth such that cerebrospinal fluid leaks out. […]
# [2] = target: T1, SEQ ID NO:33 with substitution W77M (Homo sapiens, UniProt P36544, F159M/H163T/I152M/R155K/V154L/W156N/W77M/Y151P); assay: Plate reader YFP quench (anion reporter) assay, dose response curves; assay type: cell-based; settings: FIG. 9B
# T1 construct: expressed in transfected cells; host or cells: Lenti-X 293T (HEK293T) cells, pcDNA3.1(+) plasmid
# T1 sequence (P36544 with tags, fused parts or gaps W77M/Y151P/I152M/V154L/R155K/W156N/F159M/H163T): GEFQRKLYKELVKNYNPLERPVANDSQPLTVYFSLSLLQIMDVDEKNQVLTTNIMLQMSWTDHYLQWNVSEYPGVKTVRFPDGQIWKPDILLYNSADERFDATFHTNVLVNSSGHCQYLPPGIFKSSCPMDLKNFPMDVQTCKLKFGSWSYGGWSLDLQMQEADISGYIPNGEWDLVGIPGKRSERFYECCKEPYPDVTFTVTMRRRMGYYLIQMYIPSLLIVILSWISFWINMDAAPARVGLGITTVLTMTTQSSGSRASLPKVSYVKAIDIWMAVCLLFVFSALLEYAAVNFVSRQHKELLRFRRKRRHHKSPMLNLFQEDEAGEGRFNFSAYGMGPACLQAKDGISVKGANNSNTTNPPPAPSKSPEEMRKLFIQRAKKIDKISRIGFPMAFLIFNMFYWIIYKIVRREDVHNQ
# Description: Lenti-X 293T cells (LX293T, Clontech) were maintained in DMEM containing 10% FBS and 1% penicillin/streptomycin (Invitrogen). […] The next day, the cells were transiently transfected with 0.1 μg of DNA per well using standard Fugene protocol (Promega). On the day of assay, cells were washed 2 times in 1× extracellular solution (1×ECS: 140 mM NaCl, 5 mM KCl, 1 mM MgCl2, 2 mM CaCl2, 10 mM HEPES, 10 mM glucose, pH 7.2, mOsms 300). After the last wash, 100 μL of 1×ECS was added to the wells and the plate was incubated at 37° C. for 30 min. While incubating the plate, the drugs were diluted to a 2× concentration in 1×ECS-NaI (same components as 1×ECS except the 140 mM NaCl was replaced by 140 mM NaI). The plates were then read on a Flexstation3 (Molecular Devices). Each well, 8 wells at a time, of the plate is read for 2 min using a Flexstation3 (Molecular Devices) as follows: 1) a baseline YFP fluorescence is read for 17 sec, 2) 100 μL of ligand is added, and 3) the changes in YFP fluorescence are then measured every 1.3 sec for the remaining time.
# To further tune the responsiveness of the engineered LGIC receptors to native and non-native ligands, the binding pocket of each ligand in the alpha7-nAChR was modeled and the amino acid residues that form the binding pocket were mapped. […]
structure (smiles),measurement,setting,value
c1cnc2c(c1)C[C@@]1(CN3CCC1CC3)O2 [AZD-0328],duration of the reversal of mechanical hypersensitivity,[1]; after single IP injection,at least 2 days
same,effect on mechanical threshold in the absence of vector,[1]; contralateral side,no measurable effect
same,mechanical thresholds after second IP injection,"[1]; injected again on the third day, followed for 48 hours",recovery to non-injury baseline thresholds
same,reversal of mechanical hypersensitivity,"[1]; high dose of ligand, all rats (Chimera 1-8)",complete reversal
same,reversal of mechanical hypersensitivity,"[1]; low dose, rats receiving Chimera 1, 2, 4, 5, 6 and 8",complete reversal
same,reversal of mechanical hypersensitivity,"[1]; low dose, rats receiving Chimera 3 and 7",partial reversal
same,increase in EC50 (rightward shift) compared to unmutated SEQ ID NO:33,[2],> 2 log
